Several values for one entry are separate records, joined by “and”; a condition that tells them apart may be missing. Identical values can stand only once. Like-named read-outs stand apart in the source and are kept apart here.
Columns and labels:
[1] = test system: HIV-1 wild-type and NeoR6 resistant isolates; conditions: cited from earlier work
HIV-1 IIIB = test: microbe, parasite or virus in culture; format: cell-based
Protocol: (§1) Inhibition of HIV-1 cell replication was tested using the cMAGI assay, which is based on the ability of HIV-1 TAT to transactivate the expression of an integrated β-galactosidase reporter gene driven by the HIV-LTR (B. Chackeria et al., J. Virol., (1997) 71, 3932; Collins et al., Nat. Med. (2000) 6, 475). The β-galactosidase reporter is modified to remain localized in the nucleus where it can be detected with the X-gal (5-bromo-4-chloro-3indoyl-β-D-galactopyranoside) substrate as an intense nuclear stain within a few days of infection.
(§2) HIV-1 isolates were propagated by subculture in MT2 cells (Litovchick et al. (2001) supra). Aliquots of cell-free culture supernatants were used as viral inoculum. PAACs were dissolved in the RPMI 1640 medium. Cytotoxicity determinations were carried out in MT2 cells by trypan blue exclusion assay. Viral inhibition was determined by incubating MT2 or cMAGI HIV-1 reporter cells with 0.2-0.5 multiplicity of infection of HIV-1 wild type or resistant virus for 4 days at 37° C. in the presence or absence of various concentrations of pAACs. HIV-1 infection of cMAGI cells was determined by counting the number of HIV-1-infected cells (stained blue). The cytopathic effects of the viral infection of MT2 cells were also analyzed by microscopic assessment of syncytium formation.

[2] = test system: Enterococcus faecium (clinical isolate); test: MIC, broth microdilution; format: cell-based; conditions: Gram positive clinical isolate
S. epidermidis B32954 = test: MIC, broth microdilution; format: cell-based, Staphylococcus epidermidis; conditions: Gram positive clinical isolate
[3] = test system: Enterococcus faecalis B84939-vancomycin^r; test: MIC, broth microdilution; format: cell-based; conditions: Gram positive clinical isolate
P. aeruginosa R17093 = test: MIC, broth microdilution; format: cell-based, Pseudomonas aeruginosa; conditions: Gram negative clinical isolate; for MIC: read-out: Minimum Inhibitory Concentration
S. aureus MSSA = conditions: Gram positive clinical isolate
S. aureus MRSA = conditions: Gram positive clinical isolate
S. epidermidis MSSE = conditions: Gram positive clinical isolate
S. epidermidis MRSE = conditions: Gram positive clinical isolate
[4] = test system: Enterococcus faecalis (clinical isolate); conditions: Gram positive clinical isolate
E. Coli-ESBL negative = conditions: Gram negative clinical isolate
E. Coli-ESBL positive = conditions: Gram negative clinical isolate
[5] = test system: K. pneumoniae-ESBL negative; conditions: Gram negative clinical isolate
[6] = test system: K. pneumoniae-ESBL positive; conditions: Gram negative clinical isolate
Serratia marcescens = conditions: Gram negative clinical isolate
Enterobacter cloacae = conditions: Gram negative clinical isolate
Enterobacter aerogenes = conditions: Gram negative clinical isolate
[7] = test system: P. aeruginosa-gentamicin^s, meropenem^s; conditions: Gram negative clinical isolate
[8] = test system: P. aeruginosa-gentamicin^r, meropenem^r; conditions: Gram negative clinical isolate
[9] = test system: A. baumannii-amikacin^s, meropenem^s; conditions: Gram negative clinical isolate
[10] = test system: A. baumannii-amikacin^r, meropenem^r; conditions: Gram negative clinical isolate
E. coli U23773^r = conditions: Gram negative clinical isolate
[11] = test system: Enterobacter cloacae W25161; conditions: Gram negative clinical isolate
A. baumannii R16998 = conditions: Gram negative clinical isolate
[12] = test system: HIV-1 AZT resistant virus; format: cell-based; conditions: Table 4; read-out: EC50 AZT^Res
Protocol: as §1, §2

HIV-1 Ba-L = format: cell-based; conditions: Table 4
Protocol: as §1, §2

[13] = test system: HIV-1 NeoR6 resistant virus; format: cell-based; conditions: read-out: EC50 NeoR6^Res; Table 4
Protocol: as §1, §2

[14] = test system: HIV-1 Protease resistant virus; format: cell-based; conditions: Table 4; read-out: EC50 Protease^Res
Protocol: as §1, §2

[15] = test system: HIV-1 clinical isolate Clade A; format: cell-based
Protocol: as §1, §2

[16] = test system: HIV-1 clinical isolate Clade C; format: cell-based
Protocol: as §1, §2

in vitro = format: cell-based; conditions: human; Table 4; tryphan blue exclusion assay for MT2 cells; read-out: Cytotoxicity
Protocol: Cytotoxicity of the various pAACs was determined using the trypan blue exclusion assay. In brief, a sample of the cell suspension was diluted 1:1 (v/v) with 0.4% trypan blue and the cells were counted using a hemocytometer. Results are expressed as the percentage of dead cells.
as §2

CXCR4 = target: T1, CXCR4 (Homo sapiens, UniProt P61073); test: Competition with 12G5 mAb binding to CXCR4 on MT2 cells (flow cytometry); conditions: for median fluorescent intensity (MFI) of 12G5 mAb binding to MT2 cells: without compound 55.56, isotype control 4.0
T1 construct: incubated at 4° C. with anti-CXCR4 mAb, 12G5, conjugated to phycoerithrine (PE); endogenous in cells; host or cells: MT2 cells
T1 sequence (P61073 whole entry): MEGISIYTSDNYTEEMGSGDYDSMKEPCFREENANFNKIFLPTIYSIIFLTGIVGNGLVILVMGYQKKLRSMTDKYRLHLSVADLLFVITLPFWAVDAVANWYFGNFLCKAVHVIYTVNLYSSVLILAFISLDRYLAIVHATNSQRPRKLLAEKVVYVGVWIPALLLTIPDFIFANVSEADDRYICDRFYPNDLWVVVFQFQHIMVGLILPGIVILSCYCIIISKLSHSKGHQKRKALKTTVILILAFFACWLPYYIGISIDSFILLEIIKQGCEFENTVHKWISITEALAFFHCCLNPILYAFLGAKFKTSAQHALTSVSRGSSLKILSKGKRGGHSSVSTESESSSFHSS
Protocol: Interaction of pAACs and arginine peptides with CXCR4 coreceptor: Interactions of pAACs and arginine-peptides with CXCR4 were determined by flow cytometry (FACS-Scan, Becton Dickinson) as previously described (Litovich (2001) supra). In brief, 0.5×10^6 MT2 cells were washed with ice-cold PBS containing 0.1% sodium azide (wash buffer) and were incubated at 4° C. with anti-CXCR4 mAb, 12G5, conjugated to phycoerithrine (PE), in the absence or presence of different concentrations of pAACs and arginine peptides. After 30 minutes of incubation, the cells were washed with ice-cold wash buffer and fixed in PBS containing 1% paraformaldehyde. Non-specific fluorescence was assessed using an isotype control. For each sample 10,000 events were acquired. Data were analyzed and processed using CellQuest™ software (Becton Dickinson).

[17] = read-out: Minimum Inhibitory Concentration
[18] = Table 4, read-out: EC50 Clade A
[19] = Table 4, read-out: EC50 Clade C

tri-arginine gentamycin C1 conjugate [Compound R3G]
times more resistant, NeoR6^res isolates than wild-type virus [1]: about 5 times
EC50 ([1]; wild-type and NeoR6 resistant isolates): 4.1 µM

L-Arg-9-mer-neomycin [Compound 8]
EC50 (HIV-1 IIIB; Table 3, against HIV-1 IIIB virus, read-out: EC50): 30 ± 7 µM
Minimum Inhibitory Concentration [2]: 32.0 mg/L
MIC [2, 17]: 10.96 µM
Minimum Inhibitory Concentration (S. epidermidis B32954): 0.5 mg/L
MIC (S. epidermidis B32954; [17]): 0.17 µM
Minimum Inhibitory Concentration [3]: 32.0 mg/L
MIC [3, 17]: 10.96 µM
Minimum Inhibitory Concentration (P. aeruginosa R17093): 128.0 mg/L
MIC (P. aeruginosa R17093; listed as L-Neo-9-mer): 43.83 µM
MIC (P. aeruginosa R17093): 43.83 µM
Minimum Inhibitory Concentration (S. aureus MSSA): 4.0 mg/liter and 1.37 μM
Minimum Inhibitory Concentration (S. aureus MRSA): 2.0 mg/liter and 0.68 μM
Minimum Inhibitory Concentration (S. epidermidis MSSE): 0.5 mg/liter and 0.17 μM
Minimum Inhibitory Concentration (S. epidermidis MRSE): 0.5 mg/liter and 0.17 μM
Minimum Inhibitory Concentration [4]: 256.0 mg/liter and 87.67 μM
Minimum Inhibitory Concentration (E. Coli-ESBL negative): 4.0 mg/liter and 1.37 μM
Minimum Inhibitory Concentration (E. Coli-ESBL positive): 8.0 mg/liter and 2.74 μM
Minimum Inhibitory Concentration [5]: 3.0 mg/liter and 1.03 μM
Minimum Inhibitory Concentration [6]: 1.5 mg/liter and 0.51 μM
Minimum Inhibitory Concentration (Serratia marcescens): 4.0 mg/liter and 1.37 μM
Minimum Inhibitory Concentration (Enterobacter cloacae): 8.0 mg/liter and 2.74 μM
Minimum Inhibitory Concentration (Enterobacter aerogenes): 8.0 mg/liter and 2.74 μM
Minimum Inhibitory Concentration [7]: 48.0 mg/liter and 16.44 μM
Minimum Inhibitory Concentration [8]: 128.0 mg/liter and 43.83 μM
Minimum Inhibitory Concentration [9]: 6.0 mg/liter and 2.06 μM
Minimum Inhibitory Concentration [10]: 128.0 mg/liter and 43.83 μM
Minimum Inhibitory Concentration ([10]; listed as L-Neo-9-mer): 57.92 µM
Minimum Inhibitory Concentration (E. coli U23773^r): 96.0 mg/liter and 32.88 μM
Minimum Inhibitory Concentration (E. coli U23773^r; listed as L-Neo-9-mer): 32.88 µM
Minimum Inhibitory Concentration [11]: 8.0 mg/liter and 2.74 μM
Minimum Inhibitory Concentration (A. baumannii R16998): 128.0 mg/liter and 43.83 μM

CC(=O)N[C@H](CCCNC(=N)N)C(=O)N[C@H](CCCNC(=N)N)C(=O)N[C@H](CCCNC(=N)N)C(=O)N[C@H](CCCNC(=N)N)C(=O)N[C@H](CCCNC(=N)N)C(=O)N[C@H](CCCNC(=N)N)C(=O)O [Compound 9, D-Arg-6-mer-NHAc]
EC50 (HIV-1 IIIB; Table 4, read-out: EC50 IIIB): 5.8 ± 1.7 µM
EC50 [12]: 15.2 ± 6.2 µM
EC50 (HIV-1 Ba-L): > 50 µM
EC50 [13]: 6.8 ± 0.7 µM
EC50 [14]: 4.9 ± 1 µM
EC50 ([15]; clinical isolate Clade A): 8 ± 1 µM
EC50 ([16]; clinical isolate Clade C): 5.3 ± 0.3 µM
CC50 (in vitro): 170 µM
inhibition at 2 µM (CXCR4; 2 μM, read-out: % Inhibition of 12G5 mAb binding to CXCR4): 1.6%
inhibition at 10 µM (CXCR4; 10 μM, read-out: % Inhibition of 12G5 mAb binding to CXCR4): 70.9%

CC(=O)N[C@H](CCCNC(=N)N)C(=O)N[C@H](CCCNC(=N)N)C(=O)N[C@H](CCCNC(=N)N)C(=O)N[C@H](CCCNC(=N)N)C(=O)N[C@H](CCCNC(=N)N)C(=O)N[C@H](CCCNC(=N)N)C(=O)NC[C@H]1O[C@H](O[C@H]2[C@H](O)[C@@H](O)[C@H](N)C[C@@H]2N)[C@H](N)[C@@H](O)[C@@H]1O [Compound 10, D-Arg-6-mer-neamine]
EC50 (HIV-1 IIIB; Table 4, read-out: EC50 IIIB): 1.8 ± 0.1 µM
EC50 [12]: 7 ± 4 µM
EC50 (HIV-1 Ba-L): > 50 µM
EC50 [13]: 2.6 ± 1.2 µM
EC50 [14]: 2.2 ± 0.4 µM
EC50 [15, 18]: 3.2 ± 1.3 µM
EC50 [16, 19]: 1.7 ± 0.1 µM
CC50 (in vitro): 150 µM
% Inhibition of 12G5 mAb binding to CXCR4 (CXCR4; 2 μM): 91.1%
median fluorescent intensity (MFI) of 12G5 mAb binding to MT2 cells (CXCR4; 2 μM): 9.6
median fluorescent intensity (MFI) of 12G5 mAb binding to MT2 cells (CXCR4; 10 μM): 3.3
inhibition at 2 µM (CXCR4; read-out: % Inhibition of 12G5 mAb binding to CXCR4, 2 μM): 91%
inhibition at 10 µM (CXCR4; read-out: % Inhibition of 12G5 mAb binding to CXCR4, 10 μM): 100%

D-Arg-6-mer-neomycin [Compound 11]
EC50 (HIV-1 IIIB; Table 4, read-out: EC50 IIIB): 2.1 ± 0.6 µM
EC50 [12]: 10.4 ± 4.1 µM
EC50 (HIV-1 Ba-L): > 50 µM
EC50 [13]: 5.3 ± 2.5 µM
EC50 [14]: 4 ± 1 µM
EC50 [15, 18]: 5.7 ± 2.8 µM
EC50 [16, 19]: 3 ± 0.8 µM
% Inhibition of 12G5 mAb binding to CXCR4 (CXCR4; 2 μM): 79%
% Inhibition of 12G5 mAb binding to CXCR4 (CXCR4; 2 μM, listed as r6-D-arginine-neomycin): 91.1%
% Inhibition of 12G5 mAb binding to CXCR4 (CXCR4; 10 μM): 99.3%

— patent US20060166867A1, “Novel conjugates of polysaccharides and uses thereof” (priority 2003, published 2006)
